The supplement of paper PMC10307832

Key:
Assay in all cases: relative viability (nuclei count vs DMSO), 5 days (fraction); higher = more cells survive
[1] = compound: Cc1ccc(C(=O)N(CCCN)[C@@H](c2nc3cc(Cl)ccc3c(=O)n2Cc2ccccc2)C(C)C)cc1 [Ispinesib] + N=C(N)NC(=N)NCCc1ccccc1 [Phenformin] (partner 250 µM)
Summary of the method: (§1)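 Medians of duplicate plates are given as relative viability. That measure is the nuclei count in treated wells divided by the count in vehicle wells. Counts were taken on 4× images of lung cancer cell lines in 1536-well plates, 5 days after pin-tool dosing the day after seeding with one drug alone or a fixed anchor-drug dose plus five library-drug doses (not always all listed) in √10 steps.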

[2] = compound: Cc1ccc(C(=O)N(CCCN)[C@@H](c2nc3cc(Cl)ccc3c(=O)n2Cc2ccccc2)C(C)C)cc1 [Ispinesib] + CS(=O)(=O)CCNCc1ccc(-c2ccc3ncnc(Nc4ccc(OCc5cccc(F)c5)c(Cl)c4)c3c2)o1 [Lapatinib] (partner 2 µM)
Summary of the method: as §1

[3] = compound: C[C@]1(O)C[C@@H](c2nc(-c3ccc4ccc(-c5ccccc5)nc4c3)c3c(N)nccn32)C1 [Linsitinib] + C[C@@H](Oc1cc(-c2cnn(C3CCNCC3)c2)cnc1N)c1c(Cl)ccc(F)c1Cl [Crizotinib] (partner 1 µM)
Summary of the method: as §1

[4] = compound: C[C@]1(O)C[C@@H](c2nc(-c3ccc4ccc(-c5ccccc5)nc4c3)c3c(N)nccn32)C1 [Linsitinib] + CC1(C)CCC(c2ccc(Cl)cc2)=C(CN2CCN(c3ccc(C(=O)NS(=O)(=O)c4ccc(N[C@H](CCN5CCOCC5)CSc5ccccc5)c(S(=O)(=O)C(F)(F)F)c4)cc3)CC2)C1 [Navitoclax] (partner 0.5 µM)
Summary of the method: as §1

## UMC-11
[1]; first compound 0.001 µM
  relative viability: 0.346
[1]; first compound 0.003162 µM
  relative viability: 0.327
[1]; first compound 0.01 µM
  relative viability: 0.286
[1]; first compound 0.03162 µM
  relative viability: 0.179
[1]; first compound 0.1 µM
  relative viability: 0.193
[2]; first compound 0.001 µM
  relative viability: 1.08
[2]; first compound 0.003162 µM
  relative viability: 0.751
[2]; first compound 0.01 µM
  relative viability: 0.723
[2]; first compound 0.03162 µM
  relative viability: 0.294
[2]; first compound 0.1 µM
  relative viability: 0.216
[3]; first compound 0.01 µM
  relative viability: 0.698
[3]; first compound 0.03162 µM
  relative viability: 0.448
[3]; first compound 0.1 µM
  relative viability: 0.642
[3]; first compound 1 µM
  relative viability: 0.549
[4]; first compound 0.01 µM
  relative viability: 0.317
[4]; first compound 0.03162 µM
  relative viability: 0.301
[4]; first compound 0.1 µM
  relative viability: 0.315
[4]; first compound 1 µM
  relative viability: 0.302
